SMILES strings stand for the structures. pIC50: −log10 of the molar value.

The target of this assay is T1, Human TREX1 enzyme (amino acids 1-242) (Homo sapiens, UniProt Q9NSU2).
T1 construct: Human TREX1 enzyme (amino acids 1-242)
T1 sequence (Q9NSU2 1-242): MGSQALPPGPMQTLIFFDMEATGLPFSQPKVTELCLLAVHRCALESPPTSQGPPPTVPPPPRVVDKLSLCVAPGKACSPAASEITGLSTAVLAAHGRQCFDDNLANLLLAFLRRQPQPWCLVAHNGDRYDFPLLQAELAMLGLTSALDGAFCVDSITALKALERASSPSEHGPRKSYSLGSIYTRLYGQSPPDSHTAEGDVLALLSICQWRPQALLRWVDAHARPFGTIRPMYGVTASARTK
Kind of assay: Human TREX1 enzymatic assay with dsDNA native oligonucleotide (Picogreen fluorescence). The class given is biochemical. The following applies: 2 mM dithiothreitol in assay buffer; 50 nM dsDNA oligonucleotide; 30 min preincubation at 25° C.; read-out: TREX1/Human + DTT IC50 AVG. In short, it runs like this: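 Remaining dsDNA quantified by Picogreen fluorescence after EDTA quench, with no-enzyme and DMSO wells as controls. Reactions used 50 nM annealed oligonucleotide for 5–15 min at 25 °C, after a 30 min compound–enzyme preincubation (0.8–0.16 nM TREX1; 2% DMSO; pH 7.7 Tris, 5 mM MgCl2).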

With `COc1cc(-c2nc3ccc(N4CCOCC4)cc3n2C2CCOC2)c(C)c(O)c1O` (centres unmarked) [Example 286, 6-methoxy-3-methyl-4-(6-morpholino-1-(tetrahydrofuran-3-yl)-1H-benzo[d]imidazol-2-yl)benzene-1,2-diol], the pIC50 is 5.00 to 6.00.

In the case of `COc1cc(-c2nc3ccc(C(=O)NC4CS(=O)(=O)C4)cc3n2C2(C)COC2)c(F)c(O)c1O` [Example 307, N-(1,1-dioxidothietan-3-yl)-2-(2-fluoro-3,4-dihydroxy-5-methoxyphenyl)-1-(3-methyloxetan-3-yl)-1H-benzo[d]imidazole-6-carboxamide], the pIC50 is at least 7.00.

In the case of `COc1cc(-c2nc3ccccc3n2C2(C)CCOC2)c(C)c(O)c1O` (centres unmarked) [Example 158, 6-methoxy-3-methyl-4-(1-(3-methyltetrahydrofuran-3-yl)-1H-benzo[d]imidazol-2-yl)benzene-1,2-diol], the pIC50 is 5.00 to 6.00.

As for `Cc1c(-c2nc3ccccc3n2C2CCC2)cc(OC(C)C)c(O)c1O` [Example 290, 4-(1-cyclobutyl-1H-1,3-benzodiazol-2-yl)-3-methyl-6-(propan-2-yloxy)benzene-1,2-diol], the pIC50 was 4.00 to 5.00.

For the molecule `COc1cc(-c2nc3cc(N4CC5(CN(C)C5)C4)ccc3[nH]2)cc(O)c1O` [Example 152, 3-methoxy-5-(5-(6-methyl-2,6-diazaspiro[3.3]heptan-2-yl)-1H-benzo[d]imidazol-2-yl)benzene-1,2-diol], the pIC50 is under 4.00.

In the case of `O=C(O)c1ccc(-c2nc3cc(N4CCC4)ccc3[nH]2)c(F)c1O` [Example 129, 4-(5-(azetidin-1-yl)-1H-benzo[d]imidazol-2-yl)-3-fluoro-2-hydroxybenzoic acid], the pIC50 is 5.00 to 6.00.

For `COc1cc(-c2nc3ccccc3n2C(C)(C)C)c(F)c(O)c1O` [Example 330, 4-(1-(tert-butyl)-1H-benzo[d]imidazol-2-yl)-3-fluoro-6-methoxybenzene-1,2-diol], the pIC50 was 6.00 to 7.00.

As to `COc1cc(-c2nc3cc(C4CCN(C(C)=O)CC4)ccc3[nH]2)cc(O)c1O` [Example 109, 1-(4-(2-(3,4-dihydroxy-5-methoxyphenyl)-1H-benzo[d]imidazol-5-yl)piperidin-1-yl)ethanone], the pIC50 is 4.00 to 5.00.

Regarding `COc1cc(-c2nc3nc(N4CCC4)ccc3n2C2CCOC2)cc(O)c1O` (centres unmarked) [Example 292, 5-(5-(azetidin-1-yl)-1-(tetrahydrofuran-3-yl)-1H-imidazo[4,5-b]pyridin-2-yl)-3-methoxybenzene-1,2-diol], the pIC50 is 4.00 to 5.00.

Regarding `COc1cc(-c2nc3cc(N4CCN(C(C)=O)CC4)ccc3[nH]2)cc(O)c1O` [Example 26, 1-(4-(2-(3,4-dihydroxy-5-methoxyphenyl)-1H-benzo[d]imidazol-5-yl)piperazin-1-yl)ethanone], the pIC50 is under 4.00.

Take `COc1c(O)c(O)c(C)c(-c2nc3ccccc3[nH]2)c1F` [Example 64, 4-(1H-benzo[d]imidazol-2-yl)-5-fluoro-6-methoxy-3-methylbenzene-1,2-diol]: the pIC50 was 4.00 to 5.00.

Consider `COc1cc(-c2nc3cc(N4CCN(C(=O)c5ccc(C(=O)O)cc5)CC4)ccc3[nH]2)cc(O)c1O` [Example 127, 4-(4-(2-(3,4-dihydroxy-5-methoxyphenyl)-1H-benzo[d]imidazol-5-yl)piperazine-1-carbonyl)benzoic acid], for which the pIC50 was 4.00 to 5.00.

As for `COc1cc(-c2nc3cc(N4CCN(C(=O)c5ccccc5C(C)(C)C)CC4)ccc3[nH]2)cc(O)c1O` [Example 133, (2-(tert-butyl)phenyl)(4-(2-(3,4-dihydroxy-5-methoxyphenyl)-1H-benzo[d]imidazol-5-yl)piperazin-1-yl)methanone], the pIC50 was under 4.00.

For `COc1cc(-c2nc3cc(N4CCC4)ccc3[nH]2)cc(C(=O)O)c1O` [Example 6, 5-[6-(azetidin-1-yl)-1H-benzimidazol-2-yl]-2-hydroxy-3-methoxybenzoic acid], the pIC50 is 5.00 to 6.00.

With `CNC(=O)c1ccc2nc(-c3cc(OC)c(O)c(O)c3F)n(C3CCC3)c2c1` [Example 309, 1-cyclobutyl-2-(2-fluoro-3,4-dihydroxy-5-methoxyphenyl)-N-methyl-1H-benzo[d]imidazole-6-carboxamide], the pIC50 was at least 7.00.

On to `COc1cc(-c2nc3cc(N4CCOCC4)ccc3n2C2CCOC2)cc(O)c1O` (centres unmarked) [Example 95, 3-methoxy-5-(5-morpholino-1-(tetrahydrofuran-3-yl)-1H-benzo[d]imidazol-2-yl)benzene-1,2-diol], for which the pIC50 is 4.00 to 5.00.

As for `COc1cc(-c2nc3ccc(C(=O)NC45CC(C4)C5)cc3n2C2(C)COC2)c(F)c(O)c1O` [Example 249, N-(bicyclo[1.1.1]pentan-1-yl)-2-(2-fluoro-3,4-dihydroxy-5-methoxyphenyl)-1-(3-methyloxetan-3-yl)-1H-benzo[d]imidazole-6-carboxamide], the pIC50 is at least 7.00.

For `COc1c(C)c(-c2nc3ccccc3n2C2(C)COC2)cc(O)c1O` [Example 201, 3-methoxy-4-methyl-5-[1-(3-methyloxetan-3-yl)-1H-1,3-benzodiazol-2-yl]benzene-1,2-diol], the pIC50 was 4.00 to 5.00.

For `COc1cc(-c2nc3cc(N4CCN(C(=O)c5ccccc5)CC4)ccc3[nH]2)c(F)c(O)c1O` [Example 159, (4-(2-(2-fluoro-3,4-dihydroxy-5-methoxyphenyl)-1H-benzo[d]imidazol-5-yl)piperazin-1-yl)(phenyl)methanone], the pIC50 was 5.00 to 6.00.

Take `COc1cc(-c2nc3ccc(C(=O)Nc4cnoc4)cc3n2C2(C)COC2)c(F)c(O)c1O` [Example 247, 2-(2-fluoro-3,4-dihydroxy-5-methoxyphenyl)-N-(isoxazol-4-yl)-1-(3-methyloxetan-3-yl)-1H-benzo[d]imidazole-6-carboxamide]: the pIC50 was at least 7.00.

Turning to `COc1cc(-c2nc3ccccc3n2C2CN(S(C)(=O)=O)C2)c(C)c(O)c1O` [Example 322], the pIC50 was 4.00 to 5.00.

For the molecule `COc1cc(-c2nc3ccccc3n2C23CC(C2)C3)c(C)c(O)c1O` [Example 291, 4-(1-(bicyclo[1.1.1]pentan-1-yl)-1H-benzo[d]imidazol-2-yl)-6-methoxy-3-methylbenzene-1,2-diol], the pIC50 was 6.00 to 7.00.

Consider `COc1cc(-c2nc3ccc(C(C)(C)O)cc3n2C2(C)COC2)c(F)c(O)c1O` [Example 185, 3-fluoro-4-[6-(2-hydroxypropan-2-yl)-1-(3-methyloxetan-3-yl)-1H-1,3-benzodiazol-2-yl]-6-methoxybenzene-1,2-diol], for which the pIC50 is 5.00 to 6.00.

For `COc1c(C)c(-c2nc3cc(N4CCC4)ccc3n2C2CCC2)c(F)c(O)c1O` [Example 200, 4-[5-(azetidin-1-yl)-1-cyclobutyl-1H-1,3-benzodiazol-2-yl]-3-fluoro-6-methoxy-5-methylbenzene-1,2-diol], the pIC50 was 5.00 to 6.00.

Take `COc1cc(-c2nc3cc(N4C[C@H]5CC[C@@H](C4)N5C(=O)c4ccccc4)ccc3[nH]2)cc(O)c1O` [Example 136]: the pIC50 was under 4.00.

On to `COc1cc(-c2nc3cc(N4CCN(C(=O)c5ccccc5)CC4)ccc3[nH]2)cc(O)c1O` [Example 31, (4-(2-(3,4-dihydroxy-5-methoxyphenyl)-1H-benzo[d]imidazol-5-yl)piperazin-1-yl)(phenyl)methanone], for which the pIC50 is 5.00 to 6.00.

`COc1cc(-c2nc3cc(Nc4ccccc4)ccc3n2C2(C)COC2)c(F)c(O)c1O` [Example 192, 3-fluoro-6-methoxy-4-[1-(3-methyloxetan-3-yl)-5-(phenylamino)-1H-1,3-benzodiazol-2-yl]benzene-1,2-diol]: the pIC50 is at least 7.00.

For `COc1cc(-c2nc3cc(C4CCNCC4)ccc3[nH]2)cc(O)c1O` [Example 58, 3-methoxy-5-(5-(piperidin-4-yl)-1H-benzo[d]imidazol-2-yl)benzene-1,2-diol], the pIC50 was under 4.00.

Consider `COc1cc(-c2nc3ccccc3n2C2COC2)c(C(F)(F)F)c(O)c1O` [Example 130, 6-methoxy-4-(1-(oxetan-3-yl)-1H-benzo[d]imidazol-2-yl)-3-(trifluoromethyl)benzene-1,2-diol], for which the pIC50 was 4.00 to 5.00.

For the molecule `COc1cc(-c2nc3cc(N4CCCC4)ccc3[nH]2)cc(O)c1O` [Example 137, 3-methoxy-5-(5-(pyrrolidin-1-yl)-1H-benzo[d]imidazol-2-yl)benzene-1,2-diol], the pIC50 is 5.00 to 6.00.

Consider `COc1cc(-c2nc3ccncc3[nH]2)c(-c2cccnc2)c(O)c1O` [Example 79, 4-(3H-imidazo[4,5-c]pyridin-2-yl)-6-methoxy-3-(pyridin-3-yl)benzene-1,2-diol], for which the pIC50 was under 4.00.

Regarding `COc1cc(-c2nc3cc(N4CCN(C)C(C)(C)C4)ccc3[nH]2)cc(O)c1O` [Example 121, 3-methoxy-5-(5-(3,3,4-trimethylpiperazin-1-yl)-1H-benzo[d]imidazol-2-yl)benzene-1,2-diol], the pIC50 is under 4.00.

As to `COc1cc(-c2nc3cc(F)ccc3[nH]2)c(F)c(O)c1O` [Example 231, 3-fluoro-4-(5-fluoro-1H-benzo[d]imidazol-2-yl)-6-methoxybenzene-1,2-diol], the pIC50 was under 4.00.

With `COc1cc(-c2nc3ccccc3n2C2COC2)c(F)c(O)c1O` [Example 167, 3-fluoro-6-methoxy-4-(1-(oxetan-3-yl)-1H-benzo[d]imidazol-2-yl)benzene-1,2-diol], the pIC50 was 5.00 to 6.00.

Take `COc1cc(-c2nc3cc(N4CCC4)ccc3n2C2COC2)c(F)c(O)c1O` [Example 188, 4-(5-(azetidin-1-yl)-1-(oxetan-3-yl)-1H-benzo[d]imidazol-2-yl)-3-fluoro-6-methoxybenzene-1,2-diol]: the pIC50 is 5.00 to 6.00.
